# Tests used:
# DU145 cells = experiment: Antiproliferative assay in DU145 cells, WST-1 cell proliferation assay, 96 hours (GI50); type: cell-based; conditions: Homo sapiens, DU-145, 96 hours post-treatment, triplicate
# How it was run: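 DU145 cells seeded at 5000 cells/well, treated with […] compound or vehicle for 96 h. Viability read by WST-1, expressed as percent of mean control, GI50 derived; triplicate experiments.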
Compound,GI50 (DU145 cells) [µM],melting point [°C]
"COc1cc2c(cc1O)CCN(C(=O)c1ccccc1OC)C2 [compound 115, 6-Hydroxy-7-methoxy-2-(2-methoxybenzoyl)-1,2,3,4-tetrahydroisoquinoline]",50 to 100,176 to 177
"COc1cccc(C(=O)N2CCc3cc(O)c(OC)cc3C2)c1 [compound 116, 6-Hydroxy-7-methoxy-2-(3-methoxybenzoyl)-1,2,3,4-tetrahydroisoquinoline]",10 to 50,141 to 142
"COc1ccc(C(=O)N2CCc3cc(O)c(OC)cc3C2)cc1 [compound 117, 6-Hydroxy-7-methoxy-2-(4-methoxybenzoyl)-1,2,3,4-tetrahydroisoquinoline]",> 100,173 to 174
"COc1cc2c(cc1O)CCN(C(=O)c1ccc(OC)c(OC)c1)C2 [compound 118, 2-(3,4-Dimethoxybenzoyl)-6-hydroxy-7-methoxy-1,2,3,4-tetrahydroisoquinoline]",> 100,132 to 133
"COc1cc2c(cc1O)CCN(C(=O)c1cc(OC)c(OC)c(OC)c1)C2 [compound 120, 6-Hydroxy-7-methoxy-2-(3,4,5-trimethoxybenzoyl)-1,2,3,4-tetrahydroisoquinoline]",< 10,172 to 173
"COc1ccc(C(=O)N2CCc3cc(OCc4ccccc4)c(OC)cc3C2=O)cc1 [compound 128, 6-Benzyloxy-7-methoxy-2-(4-methoxybenzoyl)-3,4-dihydro-2H-isoquinolin-1-one]",> 100,151 to 152
"COc1cc(OC)cc(C(=O)N2CCc3cc(OCc4ccccc4)c(OC)cc3C2=O)c1 [compound 129, 6-(Benzyloxy)-2-(3,5-dimethoxybenzoyl)-7-methoxy-3,4-dihydro-2H-isoquinolin-1-one]",> 100,180 to 181
"COc1cc2c(cc1OCc1ccccc1)CCN(C(=O)c1ccccc1OC)C2=O [compound 130, 6-Benzyloxy-7-methoxy-2-(2-methoxybenzoyl)-3,4-dihydro-2H-isoquinoline-1-one]",> 100,163 to 164
"COc1ccc(C(=O)N2CCc3cc(OCc4ccccc4)c(OC)cc3C2=O)cc1OC [compound 133, 6-(Benzyloxy)-7-methoxy-2-(3,4-dimethoxybenzoyl)-3,4-dihydro-2H-isoquinoline-1-one]",> 100,200 to 201
"COc1cc2c(cc1OCc1ccccc1)CCN(C(=O)c1cc(OC)c(OC)c(OC)c1)C2=O [compound 134, 6-Benzyloxy-7-methoxy-2-(3,4,5-trimethoxybenzoyl)-3,4-dihydro-2H-isoquinolin-1-one]",> 100,195 to 196
"COc1cc2c(cc1OCc1ccccc1)CCN(C(=O)c1cccc(C#N)c1)C2=O [compound 135, 6-Benzyloxy-2-(3-cyanobenzoyl)-7-methoxy-3,4-dihydro-2H-isoquinoline-1-one]",> 100,195 to 196
"COc1cc2c(cc1O)CCN(C(=O)c1ccccc1OC)C2=O [compound 138, 6-Hydroxy-7-methoxy-2-(2-methoxybenzoyl)-3,4-dihydro-2H-isoquinoline-1-one]",< 10,199 to 200
"COc1cccc(C(=O)N2CCc3cc(O)c(OC)cc3C2=O)c1 [compound 139, 6-Hydroxy-7-methoxy-2-(3-methoxybenzoyl)-3,4-dihydro-2H-isoquinoline-1-one]",< 10,198 to 199
"COc1ccc(C(=O)N2CCc3cc(O)c(OC)cc3C2=O)cc1 [compound 140, 6-Hydroxy-7-methoxy-2-(4-methoxybenzoyl)-3,4-dihydro-2H-isoquinolin-1-one]",> 100,224 to 225
"COc1cc(OC)cc(C(=O)N2CCc3cc(O)c(OC)cc3C2=O)c1 [compound 141, 2-(3,5-Dimethoxybenzoyl)-6-hydroxy-7-methoxy-3,4-dihydro-2H-isoquinolin-1-one]",< 10,198 to 199
"COc1cc2c(cc1O)CCN(C(=O)c1ccc(OC)c(OC)c1)C2=O [compound 142, 2-(3,4-Dimethoxybenzoyl)-6-hydroxy-7-methoxy-3,4-dihydro-2H-isoquinoline-1-one]",< 10,199 to 200
"COc1cc2c(cc1O)CCN(C(=O)c1cc(OC)c(OC)c(OC)c1)C2=O [compound 143, 6-Hydroxy-7-methoxy-2-(3,4,5-trimethoxybenzoyl)-3,4-dihydro-2H-isoquinolin-1-one]",< 10,175 to 176
"COc1cc2c(cc1O)CCN(C(=O)c1cccc(C#N)c1)C2=O [compound 144, 2-(3-Cyanobenzoyl)-6-hydroxy-7-methoxy-3,4-dihydro-2H-isoquinoline-1-one]",50 to 100,197 to 198

Compound,GI50 (DU145 cells) [µM],melting point [°C]
"COc1cc2c(cc1O)CCN(C(=O)c1ccc(C#N)cc1)C2=O [compound 145, 2-(4-Cyanobenzoyl)-6-hydroxy-7-methoxy-3,4-dihydro-2H-isoquinoline-1-one]",> 100,198 to 199
"COc1cccc(COc2cc3c(cc2OC)C(=O)N(Cc2cccc(OC)c2)CC3)c1 [compound 155, 7-Methoxy-2-(3-methoxybenzyl)-6-(3-methoxybenzyloxy)-3,4-dihydro-2H-isoquinolin-1-one]",> 100,85 to 86
"COc1ccccc1COc1cc2c(cc1OC)C(=O)N(Cc1ccccc1OC)CC2 [compound 156, 7-Methoxy-2-(2-methoxybenzyl)-6-(2-methoxybenzyloxy)-3,4-dihydro-2H-isoquinolin-1-one]",> 100,133 to 134
"COc1cc(CN2CCc3cc(OCc4ccccc4)c(OC)cc3C2=O)cc(OC)c1 [compound 157, 6-(Benzyloxy)-2-(3,5-dimethoxybenzyl)-7-methoxy-3,4-dihydro-2H-isoquinolin-1-one]",> 100,82 to 83
"COc1cc2c(cc1OCc1ccccc1)CCN(Cc1cc(OC)c(OC)c(OC)c1)C2=O [compound 158, 6-(benzyloxy)-7-methoxy-2-(3,4,5-trimethoxybenzyl)-3,4-dihydro-2H-isoquinolin-1-one]",> 100,136 to 137
"COc1ccc(CN2CCc3cc(O)c(OC)cc3C2=O)cc1 [compound 159, 6-Hydroxy-7-methoxy-2-(4-methoxybenzyl)-3,4-dihydroisoquinolin-1(2H)-one]",> 100,171 to 172
"COc1cccc(CN2CCc3cc(O)c(OC)cc3C2=O)c1 [compound 160, 6-Hydroxy-7-methoxy-2-(3-methoxy-benzyl)-3,4-dihydro-2H-isoquinolin-1-one]",> 100,181 to 182
"COc1cc2c(cc1O)CCN(Cc1ccccc1OC)C2=O [compound 161, 6-Hydroxy-7-methoxy-2-(2-methoxybenzyl)-3,4-dihydro-2H-isoquinolin-1-one]",> 100,164 to 165
"COc1cc(CN2CCc3cc(O)c(OC)cc3C2=O)cc(OC)c1 [compound 162, 2-(3,5-dimethoxybenzyl)-6-hydroxy-7-methoxy-3,4-dihydro-2H-isoquinolin-1-one]",> 100,166 to 167
"COc1cc2c(cc1O)CCN(Cc1cc(OC)c(OC)c(OC)c1)C2=O [compound 163, 6-hydroxy-7-methoxy-2-(3,4,5-trimethoxybenzyl)-3,4-dihydro-2H-isoquinolin-1-one]",> 100,168 to 169
"COc1cccc(S(=O)(=O)N2CCc3cc(OCc4ccccc4)c(OC)cc3C2)c1 [compound 169, 6-Benzyloxy-7-methoxy-2-(3-methoxy-benzenesulfonyl)-1,2,3,4-tetrahydroisoquinoline]",> 100,124 to 125
"COc1cc2c(cc1OCc1ccccc1)CCN(S(=O)(=O)c1cccc(OC(F)(F)F)c1)C2 [compound 170, 6-Benzyloxy-7-methoxy-2-(3-trifluoromethoxy-benzenesulfonyl)-1,2,3,4-tetrahydroisoquinoline]",> 100,118 to 120
"COc1cc2c(cc1OCc1ccccc1)CCN(S(=O)(=O)c1cccc(C)c1)C2 [compound 171, 6-Benzyloxy-7-methoxy-2-(toluene-3-sulfonyl)-1,2,3,4-tetrahydroisoquinoline]",> 100,144 to 147
"COc1cc2c(cc1OCc1ccccc1)CCN(S(=O)(=O)c1cccc(C(F)(F)F)c1)C2 [compound 172, 6-Benzyloxy-7-methoxy-2-(3-trifluoromethyl-benzenesulfonyl)-1,2,3,4-tetrahydroisoquinoline]",> 100,136 to 138.5
"COc1cccc(S(=O)(=O)N2CCc3cc(O)c(OC)cc3C2)c1 [compound 178, 6-Hydroxy-7-methoxy-2-(3-methoxy-benzenesulfonyl)-1,2,3,4-tetrahydroisoquinoline]",> 100,168 to 170
"COc1cc2c(cc1O)CCN(S(=O)(=O)c1cccc(OC(F)(F)F)c1)C2 [compound 179, 6-Hydroxy-7-methoxy-2-(3-trifluoromethoxy-benzenesulfonyl)-1,2,3,4-tetrahydroisoquinoline]",> 100,202 to 203
"COc1cc2c(cc1O)CCN(S(=O)(=O)c1cccc(C)c1)C2 [compound 180, 6-Hydroxy-7-methoxy-2-(toluene-3-sulfonyl)-1,2,3,4-tetrahydroisoquinoline]",> 100,176 to 179
"COc1cc2c(cc1O)CCN(S(=O)(=O)c1cccc(C(F)(F)F)c1)C2 [compound 181, 6-Hydroxy-7-methoxy-2-(3-trifluoromethyl-benzenesulfonyl)-1,2,3,4-tetrahydroisoquinoline]",> 100,178 to 180

# — patent US8394825B2, “Compound” (Sterix Limited, priority 2007, dated 2013)
